Measured values: patent publication US7744897B2, “Human immunodeficiency virus gp41 mimetibody polypeptides” (priority 2003, dated 2010)
Like-named read-outs stand apart in the source and are kept apart here.

Key:
[1] = cited from earlier work
[2] = human serum, spiked at 1 mg/ml, 72 hours at 37° C., HPLC
Method: The stability of the T-1249 mimetibody in vitro was determined using HPLC. The T-1249 mimetibody (SEQ ID NO: 1) was spiked into human serum at 1 mg/ml. Using a C18 chromatography matrix, a peak corresponding to the T-1249 mimetibody was resolved from other serum proteins. […] Samples were taken at 0, 5, 25, and 72 hours after the addition of the T-1249 mimetibody into human serum. A background peak was used as a reference for each sample.

[3] = system: other isolates of HIV including an enfuvirtide-resistant strain; settings: similar experiments
HIV = settings: clinical trials; cited from earlier work

Molecule: CC[C@H](C)[C@H](NC(=O)[C@H](CCC(N)=O)NC(=O)[C@H](C)NC(=O)[C@H](CCC(N)=O)NC(=O)[C@H](CCC(=O)O)NC(=O)[C@H](CC(C)C)NC(=O)[C@H](CC(C)C)NC(=O)[C@H](C)NC(=O)[C@@H](NC(=O)[C@@H](NC(=O)[C@H](CCCCN)NC(=O)[C@H](CCC(N)=O)NC(=O)[C@H](CCC(=O)O)NC(=O)[C@H](Cc1c[nH]c2ccccc12)NC(=O)[C@H](CCC(=O)O)NC(=O)[C@H](CCC(N)=O)NC(=O)[C@H](Cc1c[nH]c2ccccc12)NC(C)=O)[C@@H](C)CC)[C@@H](C)O)C(=O)N[C@@H](CCC(N)=O)C(=O)N[C@@H](CCC(N)=O)C(=O)N[C@@H](CCC(=O)O)C(=O)N[C@@H](CCCCN)C(=O)N[C@@H](CC(N)=O)C(=O)N[C@@H](CCC(=O)O)C(=O)N[C@@H](Cc1ccc(O)cc1)C(=O)N[C@@H](CCC(=O)O)C(=O)N[C@@H](CC(C)C)C(=O)N[C@@H](CCC(N)=O)C(=O)N[C@@H](CCCCN)C(=O)N[C@@H](CC(C)C)C(=O)N[C@@H](CC(=O)O)C(=O)N[C@@H](CCCCN)C(=O)N[C@@H](Cc1c[nH]c2ccccc12)C(=O)N[C@@H](C)C(=O)N[C@@H](CO)C(=O)N[C@@H](CC(C)C)C(=O)N[C@@H](Cc1c[nH]c2ccccc12)C(=O)N[C@@H](CCC(=O)O)C(=O)N[C@@H](Cc1c[nH]c2ccccc12)C(=O)N[C@@H](Cc1ccccc1)C(N)=O [T-1249 peptide]
- plasma half-life ([1]; in vivo): 9 to 14 h

Molecule: T-1249 mimetibody: Formula (II) polypeptide: V1 QIQ, single copy of T-1249, IgG J region, IgG1 hinge, CH2 and CH3; SEQ ID NO: 1
- T-1249 mimetibody remained intact [2]: more than 93%
- Activity against other isolates of HIV including an enfuvirtide-resistant strain [3]: active

Molecule: enfuvirtide
- plasma half-life ([1]; human, plasma): about 1.8 hours
- Reduction of viral levels in infected patients (HIV): 1-2 logs
